Patent US10493056B2, “Method of use of diterpenoid derivatives as anticancer agents” (Hong Kong Baptist University, priority 2016, dated 2019)
≈ marks a conversion by molar mass, not a printed value.

Experiments:
[1] = tested on: HT-29 human colorectal carcinoma cell line; experiment: sulforhodamine B anti-proliferative assay, HT-29; assay type: cell-based; settings: HT-29, 48 hours incubation, SRB; for IC50: Homo sapiens, read-out: Anti-proliferative activity, IC50 (concentration required to inhibit cell growth by 50%)
Procedure: (§1) Human colorectal carcinoma HCT-116 and HT-29 cells are routinely maintained in McCoy's 5A medium (Gibco) whereas human melanoma A375 cells and human pancreatic adenocarcinoma PANC-1 cells are cultured in DMEM (Gibco) supplemented with 10% fetal bovine serum (Gibco), 1% penicillin-streptomycin (Gibco) in a 5% CO2, 95% air humidified atmosphere at 37° C.
(§2) For the sulforhodamine B assay, different carcinoma cells were seeded in 96-well plates at a density of 5×10^3 cells/well and incubated with serial dilutions of ent-kaurene diterpenoids FA, FA1, FA2, FA3, FA4 or PA for 48 hours. After incubation, cells were treated with 50% trichloroacetic acid at 4° C. for at least 30 minutes for protein fixing. Cells were then washed with water 4 times prior to a complete dry down of the culture plate. To each well, 100 μL of 0.4% sulforhodamine B in 1% acetic acid was added. After 30-minute incubation at room temperature, cells were washed with 1% acetic acid 4 times. Fixed proteins were fully solubilized with 10 mM Tris base solution (pH 10, 200 μL/well). Spectrophotometric absorbance of samples were measured at 515 nm using a microplate reader (Bio-rad).

[2] = tested on: PANC-1 human pancreatic ductal adenocarcinoma cell line; experiment: sulforhodamine B anti-proliferative assay, PANC-1; assay type: cell-based; settings: PANC-1, 48 hours incubation, SRB; for IC50: Homo sapiens, read-out: Anti-proliferative activity, IC50 (concentration required to inhibit cell growth by 50%)
Procedure: as §1, §2

[3] = tested on: A375 human melanoma cell line; experiment: sulforhodamine B anti-proliferative assay, A375; assay type: cell-based; settings: A375, 48 hours incubation, SRB; for IC50: Homo sapiens, A-375, read-out: Anti-proliferative activity, IC50 (concentration required to inhibit cell growth by 50%)
Procedure: as §1, §2

[4] = tested on: HCT-116 human colorectal carcinoma cell line; experiment: sulforhodamine B anti-proliferative assay, HCT-116; assay type: cell-based; settings: HCT-116, 48 hours incubation, SRB; for IC50: Homo sapiens, read-out: Anti-proliferative activity, IC50 (concentration required to inhibit cell growth by 50%)
Procedure: as §1, §2

[5] = tested on: HCT-116 colon carcinoma cell-bearing nude mice; experiment: HCT-116 xenograft experiment in nude mice; assay type: in vivo, male BALB/c nude mice; settings: for growth of xenograft tumor in terms of volume: 20 mg/kg i.p. every other day for 21 days, compared to paclitaxel 10 mg/kg (FIG. 4, FIG. 6)
Procedure: For the xenograft experiment, HCT-116 cells were implanted subcutaneously in the right and left flanks (1×10^6 cells in 100 μL) of male BALB/c nude mice (n=10/group), which were SPF class and aged 6-7 weeks old weighing between 20 g-25 g. Tumor size was monitored by measuring two perpendicular diameters with a caliper every other day. When tumors were formed to approximately 100 mm^3 seven days after the injection of HCT-116 cells, FA3 or PA was administered (20 mg/kg, every other day by intraperitoneal injection for a total of 21 days). To the paclitaxel group, injection of paclitaxel was given at 10 mg/kg to the nude mice whilst the vehicle group merely received the 2.5% EtOH and Cremphor EL solution, which was the dissolving solution for FA3, PA and paclitaxel. Tumor volume and body weight of mice were recorded at indicated time points during the course of experiment. Tumor volume was calculated as volume=length×width^2×0.5. Weight of tumor xenograft was assessed at the time of sacrificed.
The data are presented as mean±standard error of the mean (S.E.M.). Statistical differences among the experimental groups were tested by one-way analysis of variance (ANOVA). P-value<0.05 was considered as statistically significant.

HCT-116 cells = experiment: flow cytometric annexin V-FITC/propidium iodide apoptosis assay; assay type: cell-based, human; settings: HCT-116, 0.25, 0.5 and 1.0 μg/mL for 48 hours, concentration-dependent (FIG. 2)
Procedure: From the flow cytometric analysis, the staining percentage of annexin V/FITC and propidium iodide (PI) is detected as percentage at Q1: necrosis (upper left quarter); Q2: late apoptosis (upper right quarter); Q3: live (lower left quarter); Q4: early apoptosis (lower right quarter).
For the flow cytometric assay, HCT-116 cells were seeded in 6-well plates at a density of 1×10^5 cells/well and incubated with serial dilutions of FA3 for 48 hours. Cells were collected by centrifugation, re-suspended in 500 μL of binding buffer containing 5 μL of propidium iodide and 5 μL of annexin V-FITC, and incubated for 15 minutes in dark. Signals of the cell suspension were then analyzed using a flow cytometer (BD) for apoptotic events.

| SMILES | IC50 [1] [µg/mL] | IC50 [2] [µg/mL] | IC50 [3] [µg/mL] | IC50 [4] [µg/mL] | Anti-proliferative activity, IC50 (concentration required to inhibit cell growth by 50%) [1] [µg/mL] | Anti-proliferative activity, IC50 (concentration required to inhibit cell growth by 50%) [2] [µg/mL] | Anti-proliferative activity, IC50 (concentration required to inhibit cell growth by 50%) [3] [µg/mL] | Anti-proliferative activity, IC50 (concentration required to inhibit cell growth by 50%) [4] [µg/mL] | growth of xenograft tumor in terms of volume [5] | growth of xenograft tumor in terms of weight ([5]; 20 mg/kg i.p. every other day, day 21, compared to paclitaxel 10 mg/kg (FIG. 3)) | change of body weight ([5]; 21-day administration, tumor-bearing nude mice (FIG. 5)) | degree of apoptosis (HCT-116 cells) |
| --- | --- | --- | --- | --- | --- | --- | --- | --- | --- | --- | --- | --- |
| C=C1C(=O)[C@@]23C(O)C[C@@H]4C(C)(C)CCCC4(COC(C)=O)[C@@H]2[C@@H](O)C[C@@H]1[C@H]3O (stereo partly shown) [FA, flexicaulin A, reference compound] |  |  |  |  | 0.9732 | 1.024 | 1.624 | 0.7215 |  |  |  |  |
| C=C1C(=O)[C@]23[C@H](O)C[C@@H]4C(C)(C)CCC[C@]45CO[C@](O)(C[C@@H]1[C@H]2O)[C@@H]53 [PA, pseudoirroratin A, reference compound] |  |  |  |  | 0.4194 | 0.4396 | 0.8737 | 0.2702 | not as efficient as paclitaxel |  |  |  |

Second part, led by results:

| IC50 [1] [µg/mL] | IC50 [2] [µg/mL] | IC50 [3] [µg/mL] | IC50 [4] [µg/mL] | Anti-proliferative activity, IC50 (concentration required to inhibit cell growth by 50%) [1] [µg/mL] | Anti-proliferative activity, IC50 (concentration required to inhibit cell growth by 50%) [2] [µg/mL] | Anti-proliferative activity, IC50 (concentration required to inhibit cell growth by 50%) [3] [µg/mL] | Anti-proliferative activity, IC50 (concentration required to inhibit cell growth by 50%) [4] [µg/mL] | SMILES | growth of xenograft tumor in terms of volume [5] | growth of xenograft tumor in terms of weight ([5]; 20 mg/kg i.p. every other day, day 21, compared to paclitaxel 10 mg/kg (FIG. 3)) | change of body weight ([5]; 21-day administration, tumor-bearing nude mice (FIG. 5)) | degree of apoptosis (HCT-116 cells) |
| --- | --- | --- | --- | --- | --- | --- | --- | --- | --- | --- | --- | --- |
| > 2 | > 2 | > 2 | > 2 |  |  |  |  | C=C1C(=O)[C@@]23[C@@H]4OC(C)(C)O[C@@H]2C[C@@H]2C(C)(C)CCC[C@@]2(COC(C)=O)[C@@H]3C(=O)C[C@@H]14 [FA2] |  |  |  |  |
| 0.424 (≈ 1.09 µM) | 0.413 (≈ 1.06 µM) | 0.668 (≈ 1.71 µM) | 0.274 (≈ 0.701 µM) |  |  |  |  | C=C1C(=O)[C@@]23[C@H](O)C[C@@H]4C(C)(C)CCC[C@@]4(COC(C)=O)[C@@H]2C(=O)C[C@@H]1[C@H]3O [FA3] | more sufficiently restrained | more sufficiently restrained | does not lead to a significant loss of body weight | Substantial increase in the degree of apoptosis |
| > 2 | > 2 | > 2 | 0.98 (≈ 2.52 µM) |  |  |  |  | C=C1C(=O)[C@@]23[C@@H]4OC(C)(C)O[C@@H]2C[C@@H]2C(C)(C)CCC[C@]25CO[C@](O)(C[C@@H]14)[C@@H]53 [FA4] |  |  |  |  |
